# Measured values: PubChem BioAssay (NCI)
#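 Where inhibition never reached the appropriate level, the endpoint shown equals the highest concentration tested. Otherwise, values were interpolated linearly from a five-concentration, 48-hour dose response in 96-well plates. TGI denotes the concentration required for complete inhibition of growth.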
# Tests used:
# Assay in all cases: NCI anticancer screen, dose series, 48 h
# ACHN renal = system: ACHN renal
# CAKI-1 renal = system: CAKI-1 renal
# MOLT-4 leukemia = system: MOLT-4 leukemia
# NCI-H460 lung = system: NCI-H460 lung
# SNB-75 CNS = system: SNB-75 CNS
# SW-620 colon = system: SW-620 colon
# NCI-H522 lung = system: NCI-H522 lung
# SK-OV-3 ovarian = system: SK-OV-3 ovarian
SMILES,TGI (ACHN renal) [µM],TGI (CAKI-1 renal) [µM],TGI (MOLT-4 leukemia) [µM],TGI (NCI-H460 lung) [µM],TGI (SNB-75 CNS) [µM],TGI (SW-620 colon) [µM],TGI (NCI-H522 lung) [µM],TGI (SK-OV-3 ovarian) [µM]
CC1(C)CN=C(c2ccc3ccccc3c2O)N1,> 100,> 100,> 100,> 100,> 100,> 100,–,–
COc1cc(/C=C2\N=C(c3ccccc3)N(c3ccc(C(=O)c4ccccc4)cc3N3C(=O)/C(=C/c4cc(OC)c(OC)c(OC)c4)N=C3c3ccccc3)C2=O)cc(OC)c1OC,66,> 100,39.6,23.8,35.6,40.7,26.1,55.4
O/N=C1/CCCCC1NO (stereo not given),> 100,> 100,> 100,> 100,> 100,> 100,–,> 100
N#Cc1nc(Cc2cccs2)oc1N,> 100,> 100,> 100,–,> 100,> 100,–,> 100
CCSc1nn(-c2c3ccccc3nc3ccccc23)c(=S)s1,> 100,> 100,> 100,> 100,> 100,> 100,> 100,> 100
CC(C)(CN1CCCCC1)C(=O)CC(SCCS(=O)(=O)O)c1ccc(Cl)c(Cl)c1 (stereo not given),9.03,12.9,8.06,11.9,–,4.61,5.59,45
O=C(NC(Cc1c[nH]c2ccccc12)C(=O)O)/C(=C/c1ccccc1)NC(=O)c1ccccc1 (stereo not given),> 100,> 100,> 100,> 100,> 100,> 100,> 88.7,> 100
Cc1ccc2c(=O)c3c(O)c4c(cc3n(C)c2c1)OC(C)(C)C=C4,> 10,> 10,> 10,> 10,> 10,> 10,> 10,> 10
Nc1ncc(Cc2nn3c(COc4ccc(Cl)cc4)nnc3s2)s1,14,> 100,> 100,> 100,> 100,> 100,> 100,> 100
C=C1C[C@]23CC[C@@H]4C(CO)(CO)CC(=O)C[C@]4(C)[C@@H]2C(O)C[C@H]1C3 (stereo not given in full),> 100,> 100,> 100,> 100,> 100,> 100,> 100,> 100
CC(=O)Nc1oc(C)nc1C#N,> 100,> 100,> 100,–,–,> 100,–,> 100
Clc1cccc(Cl)c1C1ON=C(c2ccccc2)N1C12CC3CC(CC(C3)C1)C2 (stereo not given),> 100,> 100,46.3,> 100,18.3,–,> 100,> 100
NCCCN1CCN(CCCNc2ccc3ncn4c5ccccc5c(=O)c2c34)CC1,13.9,9.02,> 25,6.24,8.71,> 25,1.52,> 25
Cn1cnc([N+](=O)[O-])c1Sc1nncc2[nH]cnc12,> 100,> 100,> 100,–,> 100,> 100,> 100,> 100
COc1cccc(C2c3cc4c(cc3OC(N3CCOCC3)C2C)OCO4)c1 (stereo not given),> 100,–,17.6,37.7,> 100,16.7,75.3,> 100
Cc1cccc(/C=N/NC(=S)NC(C)(C)C)n1,> 100,> 100,> 100,> 100,> 100,> 100,> 100,> 100
NC(=S)NS(=O)(=O)c1ccc(Cl)cc1Cl,> 100,> 100,> 100,> 100,> 100,> 100,> 100,> 100
COc1ccc(C2=C(N)c3ccccc3C2=O)cc1,> 100,> 100,> 100,> 100,78.7,> 100,> 100,> 100
CC(CN(C)C)C(O)(c1ccccc1)c1ccccc1 (stereo not given),> 100,> 100,> 100,> 100,> 100,> 100,> 100,> 100
Cc1ccc(N=Nc2cc(=O)[nH]c(=O)[nH]2)cc1C,24.4,–,> 100,41.6,15.3,14.9,–,–
Cc1ccc2c3ccc4c(c3n(C)c2c1)C(=O)C=CC4=O,> 10,> 10,2.61,> 10,> 10,4.58,4.75,> 10
O=C1C(=O)C(CCCO)(CCCO)CCCCCCCCC1(CCCO)CCCO,> 100,> 100,–,> 100,> 100,> 100,> 100,> 100
COC(=O)[C@]12CCC(=O)N1[C@H](C(=O)O)Cc1c2[nH]c2ccccc12,> 100,> 100,> 100,> 100,> 100,> 100,> 100,> 100
CN(CCc1ccccn1)C(=S)N/N=C/c1ccccn1,1.41,17.2,< 0.025,2.07,> 100,> 100,0.29,> 51.3
Cn1c(=O)c2[nH]cnc2n(C)c1=O,> 100,> 100,> 100,> 100,–,> 100,> 100,–
COC(=O)C[C@H]1[C@]2(C)C3=C(C)[C@H](c4ccoc4)CC3O[C@@H]2[C@@H]2OC(=O)[C@]3(C)CCC(=O)[C@@]1(C)[C@@H]23 (stereo not given in full),> 100,> 100,46.8,> 100,> 100,> 100,91.1,> 100
